Experimental data taken from ChEMBL document CHEMBL3885881, “DrugMatrix”.

Species on record: Rattus norvegicus
Assay: DrugMatrix - Regimen: Daily Repeat
Type: toxicity, organism-based, Sprague-Dawley
Set-up: regimen Daily Repeat, gender Male, age 6-8 weeks
Conditions: in vivo, po, route oral GAVAGE, […]; for ABSOLUTE BASOPHIL / ABSOLUTE EOSINOPHIL / ABSOLUTE LYMPHOCYTE / ABSOLUTE MONOCYTE / ABSOLUTE SEGMENTED NEUTROPHIL / BASOPHIL / EOSINOPHIL / ERYTHROCYTE COUNT / HEMATOCRIT / HEMOGLOBIN / LEUKOCYTE COUNT / LYMPHOCYTE / MEAN CORPUSCULAR HEMOGLOBIN / MEAN CORPUSCULAR HEMOGLOBIN CONCENTRATION / MEAN CORPUSCULAR VOLUME / MONOCYTE / NEUTROPHIL / NUCLEATED RED BLOOD CELLS / PLATELET COUNT: tissue Blood; for ALANINE AMINOTRANSFERASE / ALBUMIN / ALKALINE PHOSPHATASE / ASPARTATE AMINOTRANSFERASE / BLOOD UREA NITROGEN / CARBON DIOXIDE / CHLORIDE / CHOLESTEROL / CREATINE PHOSPHOKINASE / CREATININE / GLUCOSE / LACTATE DEHYDROGENASE / LIPASE / PHOSPHORUS / POTASSIUM / SODIUM / TOTAL BILIRUBIN / TOTAL PROTEIN / URIC ACID: tissue Plasma
[1] = 500 mg/kg, 72 h, dose level Low, time 3 day
[2] = 500 mg/kg, 120 h, dose level Low, time 5 day
[3] = 1100 mg/kg, 72 h, dose level High, time 3 day
[4] = 1100 mg/kg, 120 h, dose level High, time 5 day

CCOC(=O)c1ccc(N)cc1 [BENZOCAINE]
ABSOLUTE BASOPHIL [1]: 0 CELLS/uL | ABSOLUTE EOSINOPHIL [1]: 229 CELLS/uL | ABSOLUTE LYMPHOCYTE [1]: 17082.33 CELLS/uL | ABSOLUTE MONOCYTE [1]: 210.67 CELLS/uL | ABSOLUTE SEGMENTED NEUTROPHIL [1]: 1644.67 CELLS/uL | BASOPHIL [1]: 0% | EOSINOPHIL [1]: 1% | ERYTHROCYTE COUNT [1]: 5.35 x10E6/uL | HEMATOCRIT [1]: 35.4% | HEMOGLOBIN [1]: 14.2 G/DL | LEUKOCYTE COUNT [1]: 19.17 x10E3/uL | LYMPHOCYTE [1]: 89.33% | MEAN CORPUSCULAR HEMOGLOBIN [1]: 26.5 pg | MEAN CORPUSCULAR HEMOGLOBIN CONCENTRATION [1]: 40.13 G/DL | MEAN CORPUSCULAR VOLUME [1]: 66.13 fL | MONOCYTE [1]: 1% | NEUTROPHIL [1]: 8.67% | NUCLEATED RED BLOOD CELLS [1]: 0 /100WBC | PLATELET COUNT [1]: 1441 x10E3/uL | ALANINE AMINOTRANSFERASE [1]: 64 u/L | ALBUMIN [1]: 4.2 G/DL | ALKALINE PHOSPHATASE [1]: 444.67 u/L | ASPARTATE AMINOTRANSFERASE [1]: 108.33 u/L | BLOOD UREA NITROGEN [1]: 9.67 mg/dL | CARBON DIOXIDE [1]: 29 mmol/L | CHLORIDE [1]: 102.33 MEQ/L | CHOLESTEROL [1]: 59.33 mg/dL | CREATINE PHOSPHOKINASE [1]: 648.33 u/L | CREATININE [1]: 0.35 mg/dL | GLUCOSE [1]: 175.67 mg/dL | LACTATE DEHYDROGENASE [1]: 218.67 u/L | LIPASE [1]: 12.33 u/L | PHOSPHORUS [1]: 12.33 mg/dL | POTASSIUM [1]: 6.58 MEQ/L | SODIUM [1]: 144.73 MEQ/L | TOTAL BILIRUBIN [1]: 0.2 mg/dL | TOTAL PROTEIN [1]: 5.7 G/DL | URIC ACID [1]: 1.73 mg/dL | ABSOLUTE BASOPHIL [2]: 0 CELLS/uL | ABSOLUTE EOSINOPHIL [2]: 0 CELLS/uL | ABSOLUTE LYMPHOCYTE [2]: 16058.33 CELLS/uL | ABSOLUTE MONOCYTE [2]: 107.33 CELLS/uL | ABSOLUTE SEGMENTED NEUTROPHIL [2]: 2201 CELLS/uL | BASOPHIL [2]: 0% | EOSINOPHIL [2]: 0% | ERYTHROCYTE COUNT [2]: 4.82 x10E6/uL | HEMATOCRIT [2]: 32.4% | HEMOGLOBIN [2]: 13.2 G/DL | LEUKOCYTE COUNT [2]: 18.37 x10E3/uL | LYMPHOCYTE [2]: 87% | MEAN CORPUSCULAR HEMOGLOBIN [2]: 27.47 pg | MEAN CORPUSCULAR HEMOGLOBIN CONCENTRATION [2]: 40.77 G/DL | MEAN CORPUSCULAR VOLUME [2]: 67.4 fL | MONOCYTE [2]: 0.67% | NEUTROPHIL [2]: 12.33% | NUCLEATED RED BLOOD CELLS [2]: 0.67 /100WBC | PLATELET COUNT [2]: 1368 x10E3/uL | ALANINE AMINOTRANSFERASE [2]: 53.67 u/L | ALBUMIN [2]: 4.13 G/DL | ALKALINE PHOSPHATASE [2]: 386 u/L | ASPARTATE AMINOTRANSFERASE [2]: 98 u/L | BLOOD UREA NITROGEN [2]: 13 mg/dL | CARBON DIOXIDE [2]: 29 mmol/L | CHLORIDE [2]: 104.33 MEQ/L | CHOLESTEROL [2]: 48.33 mg/dL | CREATINE PHOSPHOKINASE [2]: 364.67 u/L | CREATININE [2]: 0.17 mg/dL | GLUCOSE [2]: 150 mg/dL | LACTATE DEHYDROGENASE [2]: 646.67 u/L | LIPASE [2]: 11 u/L | PHOSPHORUS [2]: 10.6 mg/dL | POTASSIUM [2]: 6.6 MEQ/L | SODIUM [2]: 143.27 MEQ/L | TOTAL BILIRUBIN [2]: 0.3 mg/dL | TOTAL PROTEIN [2]: 5.77 G/DL | URIC ACID [2]: 1.63 mg/dL | ABSOLUTE BASOPHIL [3]: 0 CELLS/uL | ABSOLUTE EOSINOPHIL [3]: 55.33 CELLS/uL | ABSOLUTE LYMPHOCYTE [3]: 17429 CELLS/uL | ABSOLUTE MONOCYTE [3]: 386.67 CELLS/uL | ABSOLUTE SEGMENTED NEUTROPHIL [3]: 3095.67 CELLS/uL | BASOPHIL [3]: 0% | EOSINOPHIL [3]: 0.33% | ERYTHROCYTE COUNT [3]: 4.95 x10E6/uL | HEMATOCRIT [3]: 33.3% | HEMOGLOBIN [3]: 13.8 G/DL | LEUKOCYTE COUNT [3]: 20.97 x10E3/uL | LYMPHOCYTE [3]: 81.67% | MEAN CORPUSCULAR HEMOGLOBIN [3]: 27.93 pg | MEAN CORPUSCULAR HEMOGLOBIN CONCENTRATION [3]: 41.43 G/DL | MEAN CORPUSCULAR VOLUME [3]: 67.4 fL | MONOCYTE [3]: 1.33% | NEUTROPHIL [3]: 16.67% | NUCLEATED RED BLOOD CELLS [3]: 0.33 /100WBC | PLATELET COUNT [3]: 1424.33 x10E3/uL | ALANINE AMINOTRANSFERASE [3]: 72 u/L | ALBUMIN [3]: 4.03 G/DL | ALKALINE PHOSPHATASE [3]: 546.33 u/L | ASPARTATE AMINOTRANSFERASE [3]: 93.33 u/L | BLOOD UREA NITROGEN [3]: 10.33 mg/dL | CARBON DIOXIDE [3]: 31 mmol/L | CHLORIDE [3]: 104.33 MEQ/L | CHOLESTEROL [3]: 61 mg/dL | CREATINE PHOSPHOKINASE [3]: 361.67 u/L | CREATININE [3]: 0.14 mg/dL | GLUCOSE [3]: 138.67 mg/dL | LACTATE DEHYDROGENASE [3]: 171 u/L | LIPASE [3]: 11.33 u/L | PHOSPHORUS [3]: 11.13 mg/dL | POTASSIUM [3]: 6.37 MEQ/L | SODIUM [3]: 144.8 MEQ/L | TOTAL BILIRUBIN [3]: 0.3 mg/dL | TOTAL PROTEIN [3]: 5.57 G/DL | URIC ACID [3]: 1.27 mg/dL | ABSOLUTE BASOPHIL [4]: 0 CELLS/uL | ABSOLUTE EOSINOPHIL [4]: 0 CELLS/uL | ABSOLUTE LYMPHOCYTE [4]: 14423.33 CELLS/uL | ABSOLUTE MONOCYTE [4]: 145 CELLS/uL | ABSOLUTE SEGMENTED NEUTROPHIL [4]: 2531.67 CELLS/uL | BASOPHIL [4]: 0% | EOSINOPHIL [4]: 0% | ERYTHROCYTE COUNT [4]: 4.51 x10E6/uL | HEMATOCRIT [4]: 32.4% | HEMOGLOBIN [4]: 13.97 G/DL | LEUKOCYTE COUNT [4]: 17.1 x10E3/uL | LYMPHOCYTE [4]: 84.33% | MEAN CORPUSCULAR HEMOGLOBIN [4]: 31.07 pg | MEAN CORPUSCULAR HEMOGLOBIN CONCENTRATION [4]: 43.13 G/DL | MEAN CORPUSCULAR VOLUME [4]: 71.97 fL | MONOCYTE [4]: 1% | NEUTROPHIL [4]: 14.67% | NUCLEATED RED BLOOD CELLS [4]: 1.33 /100WBC | PLATELET COUNT [4]: 1244.67 x10E3/uL | ALANINE AMINOTRANSFERASE [4]: 56.67 u/L | ALBUMIN [4]: 4.2 G/DL | ALKALINE PHOSPHATASE [4]: 347.67 u/L | ASPARTATE AMINOTRANSFERASE [4]: 84 u/L | BLOOD UREA NITROGEN [4]: 13.33 mg/dL | CARBON DIOXIDE [4]: 32.67 mmol/L | CHLORIDE [4]: 102.33 MEQ/L | CHOLESTEROL [4]: 58 mg/dL | CREATINE PHOSPHOKINASE [4]: 180 u/L | CREATININE [4]: 0.13 mg/dL | GLUCOSE [4]: 145.33 mg/dL | LACTATE DEHYDROGENASE [4]: 146.67 u/L | LIPASE [4]: 11 u/L | PHOSPHORUS [4]: 11.13 mg/dL | POTASSIUM [4]: 6.79 MEQ/L | SODIUM [4]: 143.83 MEQ/L | TOTAL BILIRUBIN [4]: 0.37 mg/dL | TOTAL PROTEIN [4]: 5.9 G/DL | URIC ACID [4]: 1.53 mg/dL
